The source made the active and inactive calls.
Experiments:
[1] = biological target: T1, Cytochrome P450 1A2 (Homo sapiens, UniProt P05177);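 note: PubChem cytochrome P450 panel assay, CYP1A2 panel member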
T1 sequence (P05177 whole entry): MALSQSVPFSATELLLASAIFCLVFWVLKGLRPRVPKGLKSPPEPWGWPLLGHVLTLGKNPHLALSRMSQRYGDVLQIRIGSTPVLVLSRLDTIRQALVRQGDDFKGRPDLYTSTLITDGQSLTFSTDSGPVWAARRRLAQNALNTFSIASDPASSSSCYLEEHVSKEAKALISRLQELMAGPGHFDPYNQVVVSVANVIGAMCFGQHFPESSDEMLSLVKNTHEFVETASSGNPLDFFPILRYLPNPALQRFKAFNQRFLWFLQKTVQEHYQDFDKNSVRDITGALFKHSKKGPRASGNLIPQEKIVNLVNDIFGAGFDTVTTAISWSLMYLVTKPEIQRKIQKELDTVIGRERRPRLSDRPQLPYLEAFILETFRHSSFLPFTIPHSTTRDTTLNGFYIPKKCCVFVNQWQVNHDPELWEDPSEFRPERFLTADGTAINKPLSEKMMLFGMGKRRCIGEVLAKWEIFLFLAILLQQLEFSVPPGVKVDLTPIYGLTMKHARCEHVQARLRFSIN

[2] = biological target: Cytochrome P450 2D6 (Homo sapiens, UniProt P10635);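 note: CYP2D6 member of a cytochrome P450 panel assay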
[3] = biological target: T2, Calpain-2 catalytic subunit (Sus scrofa, UniProt P43367); assay: pig calpain II inhibitor potency, dose response, biochemical, fluorogenic peptide substrate (AID 1420); type: functional
T2 sequence (P43367 whole entry): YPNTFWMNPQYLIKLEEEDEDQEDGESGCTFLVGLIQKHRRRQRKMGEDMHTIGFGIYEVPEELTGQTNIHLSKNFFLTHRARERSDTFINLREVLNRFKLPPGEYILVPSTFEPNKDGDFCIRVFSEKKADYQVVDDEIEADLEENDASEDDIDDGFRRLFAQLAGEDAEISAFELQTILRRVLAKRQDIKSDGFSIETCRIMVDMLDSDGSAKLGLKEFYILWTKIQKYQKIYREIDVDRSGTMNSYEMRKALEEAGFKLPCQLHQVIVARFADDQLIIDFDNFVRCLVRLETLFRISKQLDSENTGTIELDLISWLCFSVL

[4] = biological target: T3, Cytochrome P450 2C9 (Homo sapiens, UniProt P11712)
[5] = C. albicans growth with fluconazole, confirmation, fluorescence, retest (AID 2467); type: functional, cell-based
[6] = NIH-3T3 fibroblast cytotoxicity, dose response, cytotoxicity control, cell-based, fluorescence, Alamar Blue, secondary assay (AID 2327); type: functional;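 note: NIH-3T3 mouse fibroblasts cultured with fluconazole at 8 µg/mL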
[7] = biological target: Cytochrome P450 2C19 (Homo sapiens, UniProt P33261); assay: Cytochrome panel assay with activity outcomes. Panel member name: p450-cyp2c19 Compounds with AC50 equal or less than 10 uM are considered active; type: functional
[8] = biological target: T4, Replicative DNA helicase DnaB (Mycobacterium tuberculosis, UniProt P9WMR3); assay: DnaB intein splicing inhibitors, dose response, biochemical, cell-free fluorescence (AID 449749); type: functional
T4 sequence (P9WMR3 whole entry): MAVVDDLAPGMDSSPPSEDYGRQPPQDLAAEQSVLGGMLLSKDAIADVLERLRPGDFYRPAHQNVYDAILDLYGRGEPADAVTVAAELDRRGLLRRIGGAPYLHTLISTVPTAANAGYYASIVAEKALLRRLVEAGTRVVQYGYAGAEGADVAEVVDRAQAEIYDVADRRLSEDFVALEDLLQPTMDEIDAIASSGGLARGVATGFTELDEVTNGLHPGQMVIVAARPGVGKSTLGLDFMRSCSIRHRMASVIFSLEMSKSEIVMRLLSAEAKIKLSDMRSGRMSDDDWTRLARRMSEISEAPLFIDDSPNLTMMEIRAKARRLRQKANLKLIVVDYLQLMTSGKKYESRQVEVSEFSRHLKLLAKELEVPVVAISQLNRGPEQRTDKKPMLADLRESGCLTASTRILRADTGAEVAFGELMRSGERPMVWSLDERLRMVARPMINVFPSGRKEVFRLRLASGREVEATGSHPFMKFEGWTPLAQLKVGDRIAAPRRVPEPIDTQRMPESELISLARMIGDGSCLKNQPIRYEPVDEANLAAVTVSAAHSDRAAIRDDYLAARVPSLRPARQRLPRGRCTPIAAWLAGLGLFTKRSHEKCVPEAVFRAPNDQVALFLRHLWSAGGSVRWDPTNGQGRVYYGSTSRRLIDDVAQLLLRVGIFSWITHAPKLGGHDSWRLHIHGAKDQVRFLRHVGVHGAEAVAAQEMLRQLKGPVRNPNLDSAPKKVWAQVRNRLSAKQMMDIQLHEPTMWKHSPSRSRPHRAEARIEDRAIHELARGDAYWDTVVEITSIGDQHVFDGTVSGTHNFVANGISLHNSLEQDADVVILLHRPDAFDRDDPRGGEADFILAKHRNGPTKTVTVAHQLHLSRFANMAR

[9] = biological target: T5, Protein RecA (Mycobacterium tuberculosis, UniProt P9WHJ3); assay: Fluorescence Cell-Free Homogeneous Dose Retest to Identify Inhibitors of RecA-Intein Splicing Activity. [Related pubchem assays (depositor defined):AID2097, AID2223, AID489010, AID492950]; type: functional
T5 sequence (P9WHJ3 whole entry): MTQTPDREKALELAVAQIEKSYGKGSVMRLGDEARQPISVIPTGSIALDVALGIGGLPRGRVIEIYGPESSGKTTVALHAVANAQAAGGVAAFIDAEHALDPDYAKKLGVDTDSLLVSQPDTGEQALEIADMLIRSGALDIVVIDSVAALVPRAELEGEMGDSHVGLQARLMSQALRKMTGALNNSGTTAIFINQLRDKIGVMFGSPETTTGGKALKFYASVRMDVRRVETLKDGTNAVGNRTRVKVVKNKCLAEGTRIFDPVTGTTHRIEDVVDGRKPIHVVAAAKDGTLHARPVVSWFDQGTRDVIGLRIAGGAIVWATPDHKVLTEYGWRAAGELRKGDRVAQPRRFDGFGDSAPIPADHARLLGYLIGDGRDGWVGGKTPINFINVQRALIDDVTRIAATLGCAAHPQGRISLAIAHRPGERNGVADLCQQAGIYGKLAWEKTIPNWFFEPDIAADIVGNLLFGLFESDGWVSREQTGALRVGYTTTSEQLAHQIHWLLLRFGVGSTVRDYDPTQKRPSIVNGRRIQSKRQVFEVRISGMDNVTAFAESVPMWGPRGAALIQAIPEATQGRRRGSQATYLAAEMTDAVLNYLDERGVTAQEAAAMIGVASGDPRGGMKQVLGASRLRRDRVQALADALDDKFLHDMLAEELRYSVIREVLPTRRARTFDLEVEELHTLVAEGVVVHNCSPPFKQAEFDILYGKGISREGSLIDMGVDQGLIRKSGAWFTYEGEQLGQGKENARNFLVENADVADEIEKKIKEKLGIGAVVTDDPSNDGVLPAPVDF

[10] = biological target: T3, Cytochrome P450 2C9; remark: listed apart in the source
[11] = biological target: Cytochrome P450 3A4 (Homo sapiens, UniProt P08684);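 note: CYP3A4 tested as one member of a cytochrome P450 panel screen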
[12] = P. falciparum Dd2 growth inhibitors, dose response, SYBR Green, cherry-picked samples (AID 1159567); type: functional, cell-based

Chain of Cytochrome P450 2C19 (P33261 whole entry): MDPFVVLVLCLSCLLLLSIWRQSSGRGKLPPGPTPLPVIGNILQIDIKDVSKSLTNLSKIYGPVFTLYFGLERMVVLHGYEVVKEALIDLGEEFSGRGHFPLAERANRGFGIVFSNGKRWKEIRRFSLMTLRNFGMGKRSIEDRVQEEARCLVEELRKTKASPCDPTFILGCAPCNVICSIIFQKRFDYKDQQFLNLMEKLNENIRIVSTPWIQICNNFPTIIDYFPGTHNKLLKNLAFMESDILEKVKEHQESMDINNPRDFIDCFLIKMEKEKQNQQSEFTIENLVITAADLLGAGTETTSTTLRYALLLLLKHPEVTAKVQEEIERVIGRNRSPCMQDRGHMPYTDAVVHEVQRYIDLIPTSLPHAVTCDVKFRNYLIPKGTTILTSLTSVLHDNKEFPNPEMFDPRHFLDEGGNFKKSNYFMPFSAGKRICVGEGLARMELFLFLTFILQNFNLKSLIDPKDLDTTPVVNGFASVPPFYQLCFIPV
Chain of Cytochrome P450 2D6 (P10635 whole entry): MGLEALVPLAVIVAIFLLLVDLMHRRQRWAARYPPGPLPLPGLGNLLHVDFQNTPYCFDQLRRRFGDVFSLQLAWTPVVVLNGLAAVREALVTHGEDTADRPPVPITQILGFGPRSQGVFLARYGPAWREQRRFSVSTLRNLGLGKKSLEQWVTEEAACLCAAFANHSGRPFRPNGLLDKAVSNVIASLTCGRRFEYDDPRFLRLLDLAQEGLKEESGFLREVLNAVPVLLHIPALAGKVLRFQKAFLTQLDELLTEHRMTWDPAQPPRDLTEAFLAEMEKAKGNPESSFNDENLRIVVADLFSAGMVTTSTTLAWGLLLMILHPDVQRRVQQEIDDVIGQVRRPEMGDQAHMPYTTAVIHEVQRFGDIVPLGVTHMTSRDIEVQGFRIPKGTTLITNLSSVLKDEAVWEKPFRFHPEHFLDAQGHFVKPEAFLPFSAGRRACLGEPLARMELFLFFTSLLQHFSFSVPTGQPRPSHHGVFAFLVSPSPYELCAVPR
T3 sequence (P11712 whole entry): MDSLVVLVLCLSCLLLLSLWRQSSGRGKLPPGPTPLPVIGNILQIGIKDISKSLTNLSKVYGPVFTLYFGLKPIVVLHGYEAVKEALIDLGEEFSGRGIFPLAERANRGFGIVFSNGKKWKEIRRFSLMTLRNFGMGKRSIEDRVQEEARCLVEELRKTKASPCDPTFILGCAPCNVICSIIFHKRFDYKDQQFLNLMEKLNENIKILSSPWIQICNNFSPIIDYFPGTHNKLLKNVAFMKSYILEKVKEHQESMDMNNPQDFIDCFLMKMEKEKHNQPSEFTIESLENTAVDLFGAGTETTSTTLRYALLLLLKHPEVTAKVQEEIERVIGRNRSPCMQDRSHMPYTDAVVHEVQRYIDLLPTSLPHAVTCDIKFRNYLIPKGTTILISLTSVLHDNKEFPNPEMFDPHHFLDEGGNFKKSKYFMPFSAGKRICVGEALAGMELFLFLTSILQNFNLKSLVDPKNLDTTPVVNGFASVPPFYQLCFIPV
Chain of Cytochrome P450 3A4 (P08684 whole entry): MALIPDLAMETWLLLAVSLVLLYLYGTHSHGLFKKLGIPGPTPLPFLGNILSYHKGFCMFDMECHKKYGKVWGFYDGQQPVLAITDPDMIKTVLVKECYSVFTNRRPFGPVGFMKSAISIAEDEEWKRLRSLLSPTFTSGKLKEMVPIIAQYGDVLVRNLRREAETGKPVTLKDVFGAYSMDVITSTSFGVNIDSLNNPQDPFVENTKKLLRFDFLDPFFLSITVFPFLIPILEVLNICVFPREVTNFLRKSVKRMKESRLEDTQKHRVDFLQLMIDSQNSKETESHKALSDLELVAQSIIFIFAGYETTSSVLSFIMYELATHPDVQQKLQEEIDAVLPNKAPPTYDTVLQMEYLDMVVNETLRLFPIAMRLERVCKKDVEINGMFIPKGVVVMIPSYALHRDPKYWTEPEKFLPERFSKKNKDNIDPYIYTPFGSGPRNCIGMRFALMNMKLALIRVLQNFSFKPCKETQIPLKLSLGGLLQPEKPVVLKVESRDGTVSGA

## CCCc1nc2ccccc2c(C(=O)OCC(=O)Nc2cccc(S(=O)(=O)N3CCOCC3)c2)c1CC
[1]
  AC50: 10 µM (inconclusive)
[2]
  AC50: 17.8 µM (inconclusive)

## N=C(NNC(=O)c1ccccc1)c1cc2ccccc2oc1=O
[3]
  IC50: 48.5 µM (not active)

## CC(C)Cn1c(N)c(C(=O)COC(=O)c2cccc(F)c2)c(=O)n(C)c1=O
[3]
  IC50: 16.2 µM (not active)

## CCOc1cc(C)ccc1OCc1nnc(SCC(=O)c2cccc([N+](=O)[O-])c2)n1CC
[4]
  AC50: inconclusive

## Cc1c(C(=O)N2CCC(C)CC2)sc2ncnc(N3CCN(c4ccccc4)CC3)c12
[3]
  IC50: 19 µM (not active)

## COCCn1c(=O)c(-c2cccc(C#N)c2)nc2cnc(N(C)C)nc21
[1]
  AC50: 2 µM (inconclusive)
[2]
  AC50: 0.1 µM (inconclusive)

## O=C(Cc1ccccc1Cl)NCCCn1ccnc1
[3]
  IC50: > 50 µM (not active)

## COc1ccc(Cl)cc1NC(=O)NCCCl
[4]
  AC50: inconclusive

## O=C(Oc1ccc(-c2ccccc2)cc1)N1CCCCC1
[3]
  IC50: 1.11 µM (not active)

## CCOc1ccc(CCNC(=O)CN2CCN(Cc3ccc(F)cc3)C2=O)cc1OCC
[3]
  IC50: > 50 µM (not active)

## Cc1ccc(SCC(=O)c2sc(-c3ccccc3)nc2C)cc1
[3]
  IC50: 6.06 µM (not active)

## COC(=O)c1[nH]c2cc(C)ccc2c1NC(=O)CN1CCc2cc(OC)c(OC)cc2C1
[5]
  EC50: > 38 µM (not active)
[6]
  EC50: > 150 µM (inactive)

## COc1ccc2c(Cc3c4ccccc4cc4ccccc34)cncc2c1O
[2]
  AC50: 3.16 µM (inconclusive)
[4]
  AC50: inconclusive

## CCOc1ccc(NC(=O)NNC(=O)c2cc3ccccc3cc2O)cc1
[6]
  EC50: > 150 µM (inactive)

## O=C(Nc1ccccn1)c1ccco1
[4]
  AC50: inconclusive
[7]
  AC50: inconclusive

## CCCCOc1cccc(C(=O)NN=C(S)NC2CCCCC2)c1
[6]
  EC50: 37.1 µM (active)

## CC1Cc2ccccc2N1C(=O)CCN1C(=O)C2C3C=CC(C3)C2C1=O (stereo unspecified)
[1]
  AC50: 10 µM (inconclusive)
[4]
  AC50: inconclusive
[7]; read-out: AC50
  AC50: 10 µM (inconclusive)

## COc1ccc(CNc2ccc3c[nH]nc3c2)c(OC)c1OC
[8]
  AC50: 2.69 µM (active)
[9]
  EC50: 0.797 µM (active)

## Cn1c(C(=O)NCC2CCCO2)cc2c(=O)n3ccccc3nc21 (stereo unspecified)
[10]
  AC50: 25.1 µM (inconclusive)
[2]
  AC50: 3.55 µM (inconclusive)
[7]; read-out: AC50
  AC50: 17.8 µM (inconclusive)

## Cc1cc(SCC(=O)c2cccs2)nc2c(C)cccc12
[4]
  AC50: inconclusive

## COc1ccc(N2CCN(C(c3ccccc3)c3nnnn3Cc3ccc(F)cc3)CC2)cc1 (stereo unspecified)
[3]
  IC50: 5 µM (not active)

## CSc1nn2c(C(F)(F)F)cc(C(F)(F)F)nc2c1C(=O)O
[6]
  EC50: > 160 µM (inactive)

## C=COC(=O)CSc1snc(SCC(=O)OC)c1C#N
[8]
  AC50: > 380 µM (inactive)
[9]
  EC50: 40.1 µM (active)

## NN=C(S)Nc1cccc(Cl)c1
[5]
  EC50: > 38 µM (not active)
[6]
  EC50: > 150 µM (inconclusive)

## CCCCNS(=O)(=O)c1ccc(OC)c(Cl)c1Cl
[1]
  AC50: 4.47 µM (inconclusive)
[4]
  AC50: inconclusive

## O=C1CC/[N+](=C\c2ccc(Cl)c(Cl)c2)[N-]1
[8]
  AC50: 17.8 µM (active)
[9]
  EC50: 8.98 µM (active)

## O=C(Nc1ccc2nc(-c3ccc(Br)o3)[nH]c2c1)c1ccco1
[10]
  AC50: 11.2 µM (inconclusive)
[2]
  AC50: 1 µM (inconclusive)

## CC1CCCN(C2=C(Cl)C(=O)N(c3cccc(Cl)c3)C2=O)C1 (stereo unspecified)
[8]
  AC50: > 380 µM (inactive)
[9]
  EC50: 2.86 µM (active)

## CC(C)CNCC(=O)N1c2ccccc2Sc2ccccc21.O=C(O)C(=O)O
[1]
  AC50: 15.8 µM (inconclusive)
[2]
  AC50: 28.2 µM (inconclusive)
[4]
  AC50: inconclusive

## CCc1ccc(CNC(=O)CCC(=O)N2Cc3cccc(OC)c3Oc3ncccc32)cc1
[5]
  EC50: > 38 µM (not active)
[6]
  EC50: > 160 µM (inactive)

## Cc1cccc(NC(S)=NCc2cccs2)c1
[3]
  IC50: > 50 µM (not active)

## Cc1cc(C)c(S(=O)(=O)NNC(=O)C2CCN(Cc3ccccc3)CC2)c(C)c1
[11]
  AC50: 22.4 µM (inconclusive)
[4]
  AC50: inconclusive

## CC(=O)N1CC[C@@H]2[C@@H](CO)Nc3ccc(C#Cc4ccccc4F)cc3[C@@H]21
[12]
  AC50: 10.7 µM (active)

## C/C=C/c1ccccc1[C@@H]1[C@@H](CO)N(S(=O)(=O)c2cccc(F)c2)[C@H]1C#N
[12]
  AC50: 6.96 µM (active)

## COc1ccc2c3c([nH]c2c1)[C@@H](CO)N(Cc1ccccc1)CC31CCN(C(=O)c2cccnc2)CC1
[12]
  AC50: 4.55 µM (active)

## COc1ccc2c3c([nH]c2c1)[C@H](CO)N(Cc1ccccc1F)CC31CN(C(=O)C2CCC2)C1
[12]
  AC50: 7.75 µM (active)

From ChEMBL document CHEMBL1201862, “PubChem BioAssay data set” (2004)
